Activity and IC50 data for 4 compounds are collected here from ChEMBL document CHEMBL5390284, “Shikimate-Derived Meroterpenoids from the Ascidian-Derived Fungus Amphichorda felina SYSU-MS7908 and Their Anti-Glioma Activity” (J Nat Prod, 2023).

Test [1] concerns U-251. The test can be described thus: Induction of apoptosis in human U-251 cells assessed as late apoptotic cells at 450 uM incubated for 48 hrs by Annexin V-FITC/PI staining based flow cytometry analysis (reference value: 1.3 +/- 0.6%). Type of test: functional. (A flow cytometer gives signals particle by particle.)
In test [2] the test system is U-87 MG. The test can be described thus: Induction of apoptosis in human U-87 MG cells assessed as early apoptotic cells at 450 uM incubated for 48 hrs by Annexin V-FITC/PI staining based flow cytometry analysis (reference value: 1.1 +/- 0.6 %). Type of test: functional, U-87MG ATCC.
The subject of test [3] is U-251. In words: Antiproliferative activity against human U-251 cells assessed as inhibition of cell growth incubated for 48 hrs by MTT assay. Type of test: functional, cell-based. As to conditions: U-251, 48 h. (Formazan colour is commonly taken as a measure of viable cells.)
Test [4] concerns U-87 MG. The test can be described thus: Induction of apoptosis in human U-87 MG cells assessed as late apoptotic cells at 450 uM incubated for 48 hrs by Annexin V-FITC/PI staining based flow cytometry analysis (reference value: 11 +/- 1%). Type of test: functional, U-87MG ATCC.
The subject of test [5] is T98G. In words: Induction of apoptosis in human T98G cells assessed as early apoptotic cells at 450 uM incubated for 48 hrs by Annexin V-FITC/PI staining based flow cytometry analysis (reference value: 2.7 +/- 0.5 %). Type of test: functional.
The test system of test [6] is U-251. In words: Induction of apoptosis in human U-251 cells assessed as early apoptotic cells at 450 uM incubated for 48 hrs by Annexin V-FITC/PI staining based flow cytometry analysis (reference value: 1.5 +/- 0.4 %). Type of test: functional.
Test [7] deals with T98G. The test can be described thus: Induction of apoptosis in human T98G cells assessed as late apoptotic cells at 450 uM incubated for 48 hrs by Annexin V-FITC/PI staining based flow cytometry analysis (reference value: 3.7 +/- 0.3 %). Type of test: functional.
Test [8] concerns U-87 MG. In words: Antiproliferative activity against human U-87 MG cells assessed as inhibition of cell growth incubated for 48 hrs by MTT assay. Type of test: functional, cell-based, U-87MG ATCC.
The subject of test [9] is T98G. The test can be described thus: Induction of apoptosis in human T98G cells assessed as total apoptotic cells at 450 uM incubated for 48 hrs by Annexin V-FITC/PI staining based flow cytometry analysis (reference value: 6.4 +/- 0.8 %). Type of test: functional.
Test [10] concerns U-251. The test can be described thus: Induction of apoptosis in human U-251 cells assessed as total apoptotic cells at 450 uM incubated for 48 hrs by Annexin V-FITC/PI staining based flow cytometry analysis (reference value: 2.8 +/- 0.3%). Type of test: functional.
The test system of test [11] is U-87 MG. The test can be described thus: Induction of apoptosis in human U-87 MG cells assessed as total apoptotic cells at 450 uM incubated for 48 hrs by Annexin V-FITC/PI staining based flow cytometry analysis (reference value: 16 +/- 1%). Type of test: functional, U-87MG ATCC.
For test [12], the system named is T98G. The test can be described thus: Antiproliferative activity against human T98G cells assessed as inhibition of cell growth incubated for 48 hrs by MTT assay. Type of test: functional, cell-based.
Test [13] relates to T98G. The test can be described thus: Antiproliferative activity against human T98G cells assessed as inhibition of cell growth at 100 uM incubated for 48 hrs by MTT assay. Type of test: functional, cell-based.
For test [14], the system named is U-251. In words: Antiproliferative activity against human U-251 cells assessed as inhibition of cell growth at 100 uM incubated for 48 hrs by MTT assay. Type of test: functional.
In test [15] the test system is U-87 MG. The test can be described thus: Antiproliferative activity against human U-87 MG cells assessed as inhibition of cell growth at 100 uM incubated for 48 hrs by MTT assay. Type of test: functional. As to conditions: U-87MG ATCC.

The source made the active and inactive calls. The calls are words filed in the database; no cut-off is given here.

In general, IC50 refers to the concentration that gives 50% inhibition. As for `Cn1nnc2c(C(N)=O)ncn2c1=O` [TEMOZOLOMIDE], the Activity was determined as 4.6% in test [1]; 4.2% in test [2]; 11% in test [4]; 7.5% in test [5]; 3.7% in test [6]; 9.9% in test [7]. In addition, the Activity is 18% in [9], 8.3% in [10] and 15% in test [11]. Besides, the IC50 stood at 189 µM in test [3], 203 µM in [8] and 151 µM in test [12].
Consider `CC(=O)O[C@@H]1Cc2c(cc3c(c2O)OC(C)(C)CC3=O)OC1(C)C`, for which the outcome in test [13], in [14] and in test [15] was inactive.
For the compound `CC1(C)CC(=O)c2cc3c(c(Cl)c2O1)C[C@@H](O)C(C)(C)O3`, the result in test [13], in test [14] and in test [15] was inactive.
Turning to `CC1(C)CC(=O)C2=C(O1)C(=O)[C@@]1(O)C[C@@H](O)C(C)(C)O[C@H]1[C@@H]2O`, the outcome in test [13], in [14] and in [15] was inactive.
